In publication PMC8765293, “Inhibitor-Resistant Mutants Give Important Insights into Candida albicans ABC Transporter Cdr1 Substrate Specificity and Help Elucidate Efflux Pump Inhibition” (Antimicrobial Agents and Chemotherapy, 2022):
≈ marks a conversion by molar mass, not a printed value. Like-named read-outs stand apart in the source and are kept apart here.

Tests used:
[1] = tested on: AD/CDR1-M639I; assay: MIC, modified CLSI M27-A3 broth microdilution; conditions: for Fold-reduced resistance level (MIC) relative to AD/CDR1: M639I, 1 = no change; for MIC: Saccharomyces cerevisiae, read-out: MIC (drug susceptibility)
[2] = tested on: AD/CDR1 (AD1-8u- overexpressing wt Cdr1); assay: MIC, modified CLSI M27-A3 broth microdilution; conditions: Saccharomyces cerevisiae, read-out: MIC (drug susceptibility)
[3] = tested on: AD/CDR1-G521R; assay: MIC, modified CLSI M27-A3 broth microdilution; conditions: for Fold-reduced resistance level (MIC) relative to AD/CDR1: G521R, 1 = no change; for MIC: Saccharomyces cerevisiae, read-out: MIC (drug susceptibility)
[4] = tested on: AD/CDR1-A713P; assay: MIC, modified CLSI M27-A3 broth microdilution; conditions: for Fold-reduced resistance level (MIC) relative to AD/CDR1: A713P, 1 = no change; for MIC: Saccharomyces cerevisiae, read-out: MIC (drug susceptibility)
[5] = tested on: AD/CDR1-T1355N; assay: MIC, modified CLSI M27-A3 broth microdilution; conditions: for MIC: Saccharomyces cerevisiae, read-out: MIC (drug susceptibility); for Fold-reduced resistance level (MIC) relative to AD/CDR1: T1355N, 1 = no change
[6] = tested on: AD/pABC3 (empty vector control, sensitive strain); assay: microbe, parasite or virus in culture; conditions: Saccharomyces cerevisiae
[7] = biological target: wt Cdr1 ATPase activity (Candida albicans, UniProt Q5ANA3); assay: biochemical; conditions: for IC50 / Ki: CDR1 (wt); for Ki: Dixon plot, read-out: Ki (Cdr1 ATPase activity); for Vmax of ATPase activity in the presence of inhibitor: CDR1; for type of inhibition of ATPase activity (Lineweaver-Burk): wt Cdr1
Sequence of wt Cdr1 ATPase activity (Q5ANA3 whole entry): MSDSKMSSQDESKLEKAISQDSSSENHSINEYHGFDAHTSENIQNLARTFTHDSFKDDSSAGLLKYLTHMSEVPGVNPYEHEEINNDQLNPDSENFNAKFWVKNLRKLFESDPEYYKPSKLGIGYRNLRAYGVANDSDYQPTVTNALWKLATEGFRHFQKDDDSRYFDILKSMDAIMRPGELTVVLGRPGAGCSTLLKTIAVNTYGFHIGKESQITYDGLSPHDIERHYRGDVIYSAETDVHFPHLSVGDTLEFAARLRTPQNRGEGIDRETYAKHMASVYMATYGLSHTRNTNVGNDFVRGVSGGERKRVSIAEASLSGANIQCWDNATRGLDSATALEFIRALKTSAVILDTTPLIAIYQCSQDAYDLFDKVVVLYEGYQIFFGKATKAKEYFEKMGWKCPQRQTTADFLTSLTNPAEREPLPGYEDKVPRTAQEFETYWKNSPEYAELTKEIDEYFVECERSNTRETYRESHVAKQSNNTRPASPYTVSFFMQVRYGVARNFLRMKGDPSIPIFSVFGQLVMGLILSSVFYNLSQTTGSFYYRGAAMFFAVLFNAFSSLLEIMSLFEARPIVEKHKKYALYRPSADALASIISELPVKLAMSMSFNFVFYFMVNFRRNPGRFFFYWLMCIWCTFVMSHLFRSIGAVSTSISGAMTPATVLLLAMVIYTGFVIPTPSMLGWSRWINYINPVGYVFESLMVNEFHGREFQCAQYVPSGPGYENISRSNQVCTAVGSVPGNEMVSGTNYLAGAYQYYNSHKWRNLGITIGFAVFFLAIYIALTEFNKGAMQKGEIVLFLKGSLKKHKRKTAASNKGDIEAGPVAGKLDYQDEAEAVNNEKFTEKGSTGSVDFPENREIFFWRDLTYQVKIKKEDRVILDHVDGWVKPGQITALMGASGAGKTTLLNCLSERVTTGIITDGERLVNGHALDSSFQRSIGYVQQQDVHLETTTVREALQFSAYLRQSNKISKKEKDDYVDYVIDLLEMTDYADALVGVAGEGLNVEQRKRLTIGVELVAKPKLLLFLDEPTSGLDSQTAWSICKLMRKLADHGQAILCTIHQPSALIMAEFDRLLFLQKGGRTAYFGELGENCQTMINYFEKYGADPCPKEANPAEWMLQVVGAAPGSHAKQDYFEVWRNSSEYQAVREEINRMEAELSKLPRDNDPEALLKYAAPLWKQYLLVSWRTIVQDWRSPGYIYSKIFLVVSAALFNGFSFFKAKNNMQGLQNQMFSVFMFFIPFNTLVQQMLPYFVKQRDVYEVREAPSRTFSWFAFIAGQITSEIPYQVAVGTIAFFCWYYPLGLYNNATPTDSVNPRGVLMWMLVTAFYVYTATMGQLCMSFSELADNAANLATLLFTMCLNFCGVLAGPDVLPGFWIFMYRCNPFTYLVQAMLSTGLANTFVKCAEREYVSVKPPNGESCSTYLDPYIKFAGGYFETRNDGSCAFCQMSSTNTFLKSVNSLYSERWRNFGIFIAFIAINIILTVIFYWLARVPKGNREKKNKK

[8] = read-out: MIC (drug susceptibility), strain AD/pABC3
[9] = read-out: MIC (drug susceptibility)
[10] = > = only partial inhibition, none = no reduction at highest concentration, read-out: Estimated IC50 for substrate inhibition of the ATPase activity

Row | Compound | Fold-reduced resistance level (MIC) relative to AD/CDR1 [1] [fold] | MIC [1] [µg/mL] | MIC [2] [µg/mL] | Fold-reduced resistance level (MIC) relative to AD/CDR1 [3] [fold] | MIC [3] [µg/mL] | Fold-reduced resistance level (MIC) relative to AD/CDR1 [4] [fold] | MIC [4] [µg/mL] | MIC [5] [µg/mL] | Fold-reduced resistance level (MIC) relative to AD/CDR1 [5] [fold] | MIC [6, 8] [µg/mL] | MIC [6, 9] [µg/mL] | IC50 [7, 10] [µM] | Ki [7] [µM] | Vmax of ATPase activity in the presence of inhibitor ([7]; [I] 0.5 μM) [nmol/min/mg] | Vmax of ATPase activity in the presence of inhibitor ([7]; [I] 1.0 μM) [nmol/min/mg] | type of inhibition of ATPase activity (Lineweaver-Burk) [7] | IC50 ([7]; from Fig. 4, read-out: IC50 for inhibition of Cdr1 ATPase activity) [µM] | Vmax of ATPase activity in the presence of inhibitor ([7]; [I] 2.0 μM) [nmol/min/mg]
1 | C/C=C/C/C=C/CCC(=O)[C@H]1O[C@H]1C(N)=O [CER, cerulenin] | 2 | 4 (≈ 17.9 µM) | 8 (≈ 35.8 µM) | 2 | 4 (≈ 17.9 µM) | 2 | 4 (≈ 17.9 µM) | 4 (≈ 17.9 µM) | 2 | 0.25 (≈ 1.12 µM) |  |  |  |  |  |  |  | 
2 | C[C@@H]1C[C@@H]([C@H](O)CC2CC(=O)NC(=O)C2)C(=O)[C@@H](C)C1 [CHX, cycloheximide] | 2 | 1 (≈ 3.55 µM) | 2 (≈ 7.11 µM) | 2 | 1 (≈ 3.55 µM) | 2 | 1 (≈ 3.55 µM) | 2 (≈ 7.11 µM) | 1 |  | 0.016 (≈ 0.0569 µM) |  |  |  |  |  |  | 
3 | Clc1ccccc1C(c1ccccc1)(c1ccccc1)n1ccnc1 [CLT, clotrimazole] |  | 8 (≈ 23.2 µM) | 8 (≈ 23.2 µM) |  |  |  | 1 (≈ 2.9 µM) | 4 (≈ 11.6 µM) |  |  | 0.002 (≈ 0.0058 µM) |  |  |  |  |  |  | 
4 | CCC(C)n1ncn(-c2ccc(N3CCN(c4ccc(OCC5COC(Cn6cncn6)(c6ccc(Cl)cc6Cl)O5)cc4)CC3)cc2)c1=O (stereo not shown) [ITC, itraconazole] | 2 | 16 (≈ 22.7 µM) | 32 (≈ 45.3 µM) | 128 | 0.25 (≈ 0.354 µM) |  | 1 (≈ 1.42 µM) | 16 (≈ 22.7 µM) | 2 | 0.031 (≈ 0.0439 µM) |  | > 32 |  |  |  |  |  | 
5 | CC(=O)N1CCN(c2ccc(OCC3COC(Cn4ccnc4)(c4ccc(Cl)cc4Cl)O3)cc2)CC1 (stereo not shown) [KTC, ketoconazole] | 2 | 4 (≈ 7.53 µM) | 8 (≈ 15.1 µM) |  | 0.125 (≈ 0.235 µM) | 8 | 1 (≈ 1.88 µM) | 4 (≈ 7.53 µM) | 2 |  | 0.008 (≈ 0.0151 µM) | 13 |  |  |  |  |  | 
6 | C/C1=C/C(=O)O[C@@H]2C[C@@H](CC[C@H](C)/C=C\C=C\CC1)O[C@@](O)([C@@H]1CSC(=O)N1)C2 [LaA, latrunculin A] | 1 | 8 (≈ 19 µM) | 8 (≈ 19 µM) |  | 0.125 (≈ 0.297 µM) | 4 | 2 (≈ 4.74 µM) | 2 (≈ 4.74 µM) | 4 |  | 0.016 (≈ 0.038 µM) |  |  |  |  |  |  | 
7 | Clc1ccc(COC(Cn2ccnc2)c2ccc(Cl)cc2Cl)c(Cl)c1 (stereo not shown) [MCZ, miconazole] | 4 | 2 (≈ 4.81 µM) | 8 (≈ 19.2 µM) | 16 | 0.5 (≈ 1.2 µM) | 8 | 1 (≈ 2.4 µM) | 2 (≈ 4.81 µM) | 4 |  | 0.008 (≈ 0.0192 µM) |  |  |  |  |  |  | 
8 | CC[C@@]1([C@@H]2O[C@@H]([C@H]3O[C@@](O)(CO)[C@H](C)C[C@@H]3C)C[C@@H]2C)CC[C@H]([C@]2(C)CC[C@]3(C[C@H](O)[C@@H](C)[C@@H]([C@@H](C)[C@@H](OC)[C@H](C)C(=O)O)O3)O2)O1 [MON, monensin] | 1 | 128 (≈ 191 µM) | 128 (≈ 191 µM) | 256 | 0.5 (≈ 0.745 µM) |  | 128 (≈ 191 µM) | 128 (≈ 191 µM) | 1 | 0.031 (≈ 0.0462 µM) |  | > 256 |  |  |  |  |  | 
9 | CO[C@@H]1C[C@@H](C[C@H]2CC[C@H](C)[C@H]([C@@H](C)C(=O)O)O2)O[C@]2(O[C@](C)([C@H]3CC[C@@](C)([C@@H]4O[C@@H]([C@H]5O[C@@](O)(CO)[C@H](C)C[C@@H]5C)C[C@@H]4C)O3)C[C@H]2C)[C@@H]1C [NIG, nigericin] | 1 | 128 (≈ 177 µM) | 128 (≈ 177 µM) |  | 0.25 (≈ 0.345 µM) | 16 | 8 (≈ 11 µM) | 128 (≈ 177 µM) | 1 | 0.063 (≈ 0.0869 µM) |  | > 256 |  |  |  |  |  | 
10 | CC[C@H]1/C=C/C=C/C[C@@H](C)[C@H](O)[C@@](C)(O)C(=O)[C@@H](C)[C@H](O)[C@@H](C)C(=O)[C@@H](C)[C@H](O)[C@@H](C)/C=C/C(=O)O[C@@H]2[C@H](C)[C@H](CC1)O[C@]1(CC[C@H](C)[C@H](C[C@@H](C)O)O1)[C@H]2C [Oligomycin, oligomycin] |  |  |  |  |  |  |  |  |  |  |  |  | 0.54 ± 0.01 | 185 | 132 | noncompetitive inhibition |  | 
11 | CC[C@@H]([C@H](C)O)n1ncn(-c2ccc(N3CCN(c4ccc(OC[C@@H]5CO[C@@](Cn6cncn6)(c6ccc(F)cc6F)C5)cc4)CC3)cc2)c1=O [PSC, posaconazole] | 16 | 2 (≈ 2.85 µM) | 32 (≈ 45.7 µM) |  | 0.063 (≈ 0.0899 µM) |  | 1 (≈ 1.43 µM) | 2 (≈ 2.85 µM) | 16 | 0.016 (≈ 0.0228 µM) |  |  |  |  |  |  |  | 
12 | CC/N=c1\cc2oc3cc(NCC)c(C)cc3c(-c3ccccc3C(=O)OCC)c-2cc1C [R6G, rhodamine 6G] | 2 | 16 (≈ 36.2 µM) | 32 (≈ 72.3 µM) | 8 | 4 (≈ 9.04 µM) |  | 32 (≈ 72.3 µM) | 32 (≈ 72.3 µM) | 1 | 0.5 (≈ 1.13 µM) |  | 32 |  |  |  |  |  | 
13 | C[C@@H](c1ncncc1F)[C@](O)(Cn1cncn1)c1ccc(F)cc1F [VRC, voriconazole] | 1 | 8 (≈ 22.9 µM) | 8 (≈ 22.9 µM) | 8 | 1 (≈ 2.86 µM) | 2 | 4 (≈ 11.5 µM) | 8 (≈ 22.9 µM) | 1 | 0.016 (≈ 0.0458 µM) |  |  |  |  |  |  |  | 
14 | [O]=[V]([O-])([O-])[O-] [Vanadate, vanadate] |  |  |  |  |  |  |  |  |  |  |  |  | 0.96 ± 0.08 | 161 |  | uncompetitive inhibitor | 1.2 | 90
